Measurements: ChEMBL document CHEMBL4118231, “Pyrroloquinoline scaffold-based 5-HT6R ligands: Synthesis, quantum chemical and molecular dynamic studies, and influence of nitrogen atom position in the scaffold on affinity” (Bioorg Med Chem, 2018)

biological target: 5-hydroxytryptamine receptor 6 (Homo sapiens, UniProt P50406); assay: Displacement of [3H]LSD from human 5-HT6R expressed in HEK293 cell membranes after 1 hr by microbeta counting method
Sequence (P50406 whole entry): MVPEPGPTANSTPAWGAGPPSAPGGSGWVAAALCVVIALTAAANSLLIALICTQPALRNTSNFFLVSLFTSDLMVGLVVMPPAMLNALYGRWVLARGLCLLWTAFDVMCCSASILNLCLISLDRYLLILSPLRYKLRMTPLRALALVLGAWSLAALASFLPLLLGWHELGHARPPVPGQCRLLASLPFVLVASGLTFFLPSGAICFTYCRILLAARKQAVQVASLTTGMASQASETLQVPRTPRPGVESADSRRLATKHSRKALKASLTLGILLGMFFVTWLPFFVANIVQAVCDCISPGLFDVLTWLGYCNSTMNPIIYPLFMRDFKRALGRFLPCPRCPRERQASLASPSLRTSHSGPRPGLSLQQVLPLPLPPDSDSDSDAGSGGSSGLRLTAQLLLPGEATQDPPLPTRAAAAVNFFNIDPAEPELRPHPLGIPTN

Row | Structure (SMILES) | Ki [nM]
1 | O=S(=O)(c1cccc(Cl)c1)n1cc(C2=CCNCC2)c2ccc3cccnc3c21 | 49
2 | O=S(=O)(c1cccc(F)c1)n1cc(C2=CCNCC2)c2ccc3ncccc3c21 | 365
3 | O=S(=O)(c1cccc(Br)c1)n1cc(C2=CCNCC2)c2ccc3ncccc3c21 | 137
4 | O=S(=O)(c1ccccc1)n1cc(C2=CCNCC2)c2ccc3cccnc3c21 | 131
5 | O=S(=O)(c1cccc(Br)c1)n1cc(C2=CCNCC2)c2ccc3cccnc3c21 | 61
6 | O=S(=O)(c1ccccc1)n1cc(C2=CCNCC2)c2ccc3ncccc3c21 | 711
7 | O=S(=O)(c1cccc(Cl)c1)n1cc(C2=CCNCC2)c2ccc3ncccc3c21 | 427
8 | O=S(=O)(c1cccc(F)c1)n1cc(C2=CCNCC2)c2ccc3cccnc3c21 | 45
9 | Clc1cccc(Cn2cc(C3=CCNCC3)c3ccc4cccnc4c32)c1 | 269
